Results from the kinase profiling compilation of Christmann-Franck et al. (2016).

How the values were obtained:
Assay in all cases: KINOMEscan competition binding
Conditions in all cases: compound 10.0 µM
SRC (human) = SRC (human) (UniProt P12931)
CDK11B (human) = CDK11B (human) (UniProt P21127)
MAP2K3 (human) = MAP2K3 (human) (UniProt P46734)
PAK4 (human) = PAK4 (human) (UniProt O96013)
STK11 (human) = STK11 (human) (UniProt Q15831)
[1] = tested on: ABL1 (human), P00519 [M351T]
STK33 (human) = STK33 (human) (UniProt Q9BYT3)
EPHB2 (human) = EPHB2 (human) (UniProt P29323)
RET (human) = RET (human) (UniProt P07949)
NEK9 (human) = NEK9 (human) (UniProt Q8TD19)
BMPR2 (human) = BMPR2 (human) (UniProt Q13873)
TEC (human) = TEC (human) (UniProt P42680)
MYLK (human) = MYLK (human) (UniProt Q15746)
[2] = tested on: KIT (human), P10721 [D816V]
[3] = target: TYK2 JH2 pseudokinase (human) (UniProt P29597)
PDGFRB (human) = PDGFRB (human) (UniProt P09619)
PIK3CD (human) = PIK3CD (human) (UniProt O00329)
RPS6KA1 KD1 (human) = RPS6KA1 KD1 (human) (UniProt Q15418)
IRAK3 (human) = IRAK3 (human) (UniProt Q9Y616)
MAP3K3 (human) = MAP3K3 (human) (UniProt Q99759)
CDKL2 (human) = CDKL2 (human) (UniProt Q92772)
MARK1 (human) = MARK1 (human) (UniProt Q9P0L2)
FYN (human) = FYN (human) (UniProt P06241)
PIM1 (human) = PIM1 (human) (UniProt P11309)
CSNK1D (human) = CSNK1D (human) (UniProt P48730)
PRKD2 (human) = PRKD2 (human) (UniProt Q9BZL6)
CDK8 (human) = CDK8 (human) (UniProt P49336)
MAPKAPK5 (human) = MAPKAPK5 (human) (UniProt Q8IW41)
CDK17 (human) = CDK17 (human) (UniProt Q00537)
CAMKK1 (human) = CAMKK1 (human) (UniProt Q8N5S9)
EIF2AK2 (human) = EIF2AK2 (human) (UniProt P19525)
MAP2K6 (human) = MAP2K6 (human) (UniProt P52564)
CDC42BPB (human) = CDC42BPB (human) (UniProt Q9Y5S2)
BMPR1A (human) = BMPR1A (human) (UniProt P36894)
MLTK (human) = MLTK (human) (UniProt Q9NYL2)
CAMK4 (human) = CAMK4 (human) (UniProt Q16566)
ABL2 (human) = ABL2 (human) (UniProt P42684)
PRKACA (human) = PRKACA (human) (UniProt P17612)
CDK18 (human) = CDK18 (human) (UniProt Q07002)
MYO3B (human) = MYO3B (human) (UniProt Q8WXR4)

Chain of TEC (human) (P42680 whole entry, looked up): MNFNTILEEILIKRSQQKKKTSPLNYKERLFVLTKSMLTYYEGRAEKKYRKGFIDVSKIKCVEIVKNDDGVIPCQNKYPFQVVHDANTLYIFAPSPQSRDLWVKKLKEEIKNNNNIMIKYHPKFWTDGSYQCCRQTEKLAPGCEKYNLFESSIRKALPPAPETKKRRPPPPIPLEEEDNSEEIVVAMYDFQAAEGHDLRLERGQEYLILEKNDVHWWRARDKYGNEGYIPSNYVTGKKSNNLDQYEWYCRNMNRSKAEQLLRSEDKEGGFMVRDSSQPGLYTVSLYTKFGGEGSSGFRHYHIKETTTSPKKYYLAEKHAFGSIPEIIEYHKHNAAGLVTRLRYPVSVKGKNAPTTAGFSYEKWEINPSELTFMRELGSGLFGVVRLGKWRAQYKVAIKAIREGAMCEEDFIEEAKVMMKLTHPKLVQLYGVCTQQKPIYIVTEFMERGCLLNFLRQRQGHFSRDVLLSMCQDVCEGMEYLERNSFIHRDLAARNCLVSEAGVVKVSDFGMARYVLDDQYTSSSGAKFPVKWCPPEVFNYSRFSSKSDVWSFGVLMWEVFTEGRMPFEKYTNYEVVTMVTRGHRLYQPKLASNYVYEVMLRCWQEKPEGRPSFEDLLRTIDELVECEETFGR
Chain of MAP2K6 (human) (P52564 whole entry, looked up): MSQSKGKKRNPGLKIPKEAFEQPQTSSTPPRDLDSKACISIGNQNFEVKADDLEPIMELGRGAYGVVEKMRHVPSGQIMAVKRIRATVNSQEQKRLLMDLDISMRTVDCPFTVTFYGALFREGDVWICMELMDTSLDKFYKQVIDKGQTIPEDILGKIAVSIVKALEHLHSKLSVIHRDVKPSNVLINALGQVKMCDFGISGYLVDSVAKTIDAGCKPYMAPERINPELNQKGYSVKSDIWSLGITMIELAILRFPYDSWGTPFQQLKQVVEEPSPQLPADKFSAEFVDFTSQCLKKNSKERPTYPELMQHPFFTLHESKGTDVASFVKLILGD
Chain of CAMK4 (human) (Q16566 whole entry, looked up): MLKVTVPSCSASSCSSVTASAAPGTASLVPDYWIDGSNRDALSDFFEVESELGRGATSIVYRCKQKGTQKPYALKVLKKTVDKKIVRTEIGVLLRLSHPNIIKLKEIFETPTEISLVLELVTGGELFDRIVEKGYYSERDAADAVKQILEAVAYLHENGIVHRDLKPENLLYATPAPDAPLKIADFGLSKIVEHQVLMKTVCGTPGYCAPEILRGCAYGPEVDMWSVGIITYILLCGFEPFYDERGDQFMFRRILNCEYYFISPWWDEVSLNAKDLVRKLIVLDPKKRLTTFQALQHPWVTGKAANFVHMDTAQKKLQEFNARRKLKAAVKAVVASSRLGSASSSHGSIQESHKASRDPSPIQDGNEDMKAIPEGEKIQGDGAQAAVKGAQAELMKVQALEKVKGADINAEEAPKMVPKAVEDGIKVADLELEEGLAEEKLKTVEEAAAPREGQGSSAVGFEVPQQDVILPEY
Chain of MYLK (human) (Q15746 whole entry, looked up): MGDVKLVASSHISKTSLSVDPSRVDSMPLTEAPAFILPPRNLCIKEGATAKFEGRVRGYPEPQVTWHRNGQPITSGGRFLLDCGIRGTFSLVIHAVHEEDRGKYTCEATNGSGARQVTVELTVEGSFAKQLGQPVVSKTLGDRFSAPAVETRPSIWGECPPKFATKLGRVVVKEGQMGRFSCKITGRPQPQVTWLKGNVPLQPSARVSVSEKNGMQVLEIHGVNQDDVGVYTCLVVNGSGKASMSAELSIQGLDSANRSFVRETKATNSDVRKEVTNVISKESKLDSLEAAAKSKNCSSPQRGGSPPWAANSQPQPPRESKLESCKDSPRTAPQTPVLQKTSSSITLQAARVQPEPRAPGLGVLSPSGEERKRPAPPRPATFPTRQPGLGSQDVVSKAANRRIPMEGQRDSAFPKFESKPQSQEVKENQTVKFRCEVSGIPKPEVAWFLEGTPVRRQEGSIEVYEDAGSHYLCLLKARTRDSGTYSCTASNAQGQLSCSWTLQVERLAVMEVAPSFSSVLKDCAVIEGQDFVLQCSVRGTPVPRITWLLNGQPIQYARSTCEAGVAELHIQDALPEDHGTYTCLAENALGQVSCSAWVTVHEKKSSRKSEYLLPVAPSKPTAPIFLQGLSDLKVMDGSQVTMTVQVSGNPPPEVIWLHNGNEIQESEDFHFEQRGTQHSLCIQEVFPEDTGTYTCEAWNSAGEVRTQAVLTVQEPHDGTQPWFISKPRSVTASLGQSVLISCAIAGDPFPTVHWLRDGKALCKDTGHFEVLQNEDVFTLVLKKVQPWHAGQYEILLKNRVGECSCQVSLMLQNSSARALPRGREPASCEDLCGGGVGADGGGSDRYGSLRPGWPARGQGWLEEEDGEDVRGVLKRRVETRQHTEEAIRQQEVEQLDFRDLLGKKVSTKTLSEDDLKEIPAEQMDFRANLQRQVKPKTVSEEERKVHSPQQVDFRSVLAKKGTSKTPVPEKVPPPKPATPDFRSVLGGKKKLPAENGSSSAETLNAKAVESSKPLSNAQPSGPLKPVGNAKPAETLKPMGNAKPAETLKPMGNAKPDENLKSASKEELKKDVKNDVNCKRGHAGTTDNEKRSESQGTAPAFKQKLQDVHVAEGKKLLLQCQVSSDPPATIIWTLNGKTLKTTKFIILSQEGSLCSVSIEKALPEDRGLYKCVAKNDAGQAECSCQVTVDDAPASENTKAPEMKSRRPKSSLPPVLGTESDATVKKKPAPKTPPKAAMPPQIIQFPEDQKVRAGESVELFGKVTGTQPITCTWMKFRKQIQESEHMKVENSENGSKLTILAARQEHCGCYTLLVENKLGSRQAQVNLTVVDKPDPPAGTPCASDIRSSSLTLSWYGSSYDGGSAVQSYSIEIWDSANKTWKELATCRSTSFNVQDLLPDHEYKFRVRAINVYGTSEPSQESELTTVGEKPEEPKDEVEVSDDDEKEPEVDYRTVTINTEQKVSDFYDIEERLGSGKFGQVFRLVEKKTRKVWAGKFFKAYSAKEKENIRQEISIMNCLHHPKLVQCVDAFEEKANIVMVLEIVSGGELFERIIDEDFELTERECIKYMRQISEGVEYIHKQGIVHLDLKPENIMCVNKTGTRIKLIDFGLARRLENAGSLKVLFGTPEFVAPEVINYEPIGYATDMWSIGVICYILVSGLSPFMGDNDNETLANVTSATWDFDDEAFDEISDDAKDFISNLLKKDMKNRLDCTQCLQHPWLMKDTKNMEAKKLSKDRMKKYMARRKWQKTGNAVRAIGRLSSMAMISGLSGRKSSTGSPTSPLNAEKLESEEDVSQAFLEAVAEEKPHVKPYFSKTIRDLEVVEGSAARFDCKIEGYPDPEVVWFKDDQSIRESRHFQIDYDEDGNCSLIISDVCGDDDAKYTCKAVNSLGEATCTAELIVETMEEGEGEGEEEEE
Chain of MAP2K3 (human) (P46734 whole entry, looked up): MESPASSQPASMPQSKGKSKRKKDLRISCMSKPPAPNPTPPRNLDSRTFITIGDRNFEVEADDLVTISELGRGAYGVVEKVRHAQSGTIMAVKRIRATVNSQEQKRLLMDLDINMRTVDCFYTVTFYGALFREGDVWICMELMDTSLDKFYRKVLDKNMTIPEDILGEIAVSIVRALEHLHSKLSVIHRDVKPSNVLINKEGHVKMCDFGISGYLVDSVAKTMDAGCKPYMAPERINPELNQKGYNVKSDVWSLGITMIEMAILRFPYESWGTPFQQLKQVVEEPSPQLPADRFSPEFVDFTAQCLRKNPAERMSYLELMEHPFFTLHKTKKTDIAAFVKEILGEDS
Chain of EIF2AK2 (human) (P19525 whole entry, looked up): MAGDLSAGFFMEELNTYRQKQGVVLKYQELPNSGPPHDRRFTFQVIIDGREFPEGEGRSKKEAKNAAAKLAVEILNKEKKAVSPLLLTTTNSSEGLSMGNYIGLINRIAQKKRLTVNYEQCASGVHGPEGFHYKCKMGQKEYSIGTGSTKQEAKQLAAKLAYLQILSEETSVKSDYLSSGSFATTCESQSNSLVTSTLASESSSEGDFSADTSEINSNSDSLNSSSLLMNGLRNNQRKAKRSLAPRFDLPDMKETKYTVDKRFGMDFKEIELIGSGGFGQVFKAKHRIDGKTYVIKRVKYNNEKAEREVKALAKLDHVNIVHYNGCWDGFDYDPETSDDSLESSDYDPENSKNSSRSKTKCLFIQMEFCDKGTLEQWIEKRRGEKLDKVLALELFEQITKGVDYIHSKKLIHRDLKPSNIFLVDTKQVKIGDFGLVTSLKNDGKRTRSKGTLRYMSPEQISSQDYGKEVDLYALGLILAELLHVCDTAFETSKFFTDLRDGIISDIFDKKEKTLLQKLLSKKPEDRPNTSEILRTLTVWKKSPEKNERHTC
Chain of BMPR1A (human) (P36894 whole entry, looked up): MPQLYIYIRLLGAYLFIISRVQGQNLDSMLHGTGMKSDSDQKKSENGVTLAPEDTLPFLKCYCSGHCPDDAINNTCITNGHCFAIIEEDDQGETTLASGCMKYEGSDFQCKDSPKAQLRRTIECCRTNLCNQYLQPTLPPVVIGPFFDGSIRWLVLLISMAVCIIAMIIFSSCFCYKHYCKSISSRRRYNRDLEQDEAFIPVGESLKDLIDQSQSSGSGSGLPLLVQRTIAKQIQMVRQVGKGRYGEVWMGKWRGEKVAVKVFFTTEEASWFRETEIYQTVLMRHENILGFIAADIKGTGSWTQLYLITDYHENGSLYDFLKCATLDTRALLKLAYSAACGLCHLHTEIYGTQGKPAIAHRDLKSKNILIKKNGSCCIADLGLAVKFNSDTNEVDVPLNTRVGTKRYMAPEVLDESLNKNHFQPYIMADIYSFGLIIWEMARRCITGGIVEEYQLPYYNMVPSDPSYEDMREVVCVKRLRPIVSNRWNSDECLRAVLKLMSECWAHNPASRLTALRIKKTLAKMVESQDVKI

CN(C)C/C=C/C(=O)Nc1cccc(Nc2ncc3c(n2)N(C)c2ccccc2C(=O)N3C)c1
kinase still bound, per cent of control (SRC (human)): 0.7%
kinase still bound, per cent of control (CDK11B (human)): 100%
kinase still bound, per cent of control (MAP2K3 (human)): 100%
kinase still bound, per cent of control (PAK4 (human)): 61%
kinase still bound, per cent of control (STK11 (human)): 100%
kinase still bound, per cent of control [1]: 0.75%
kinase still bound, per cent of control (STK33 (human)): 8.9%
kinase still bound, per cent of control (EPHB2 (human)): 100%
kinase still bound, per cent of control (RET (human)): 0.15%
kinase still bound, per cent of control (NEK9 (human)): 93%
kinase still bound, per cent of control (BMPR2 (human)): 71%
kinase still bound, per cent of control (TEC (human)): 97%
kinase still bound, per cent of control (MYLK (human)): 69%
kinase still bound, per cent of control [2]: 7.4%
kinase still bound, per cent of control [3]: 18%
kinase still bound, per cent of control (PDGFRB (human)): 38%
kinase still bound, per cent of control (PIK3CD (human)): 2.2%
kinase still bound, per cent of control (RPS6KA1 KD1 (human)): 67%
kinase still bound, per cent of control (IRAK3 (human)): 44%
kinase still bound, per cent of control (MAP3K3 (human)): 0.1%
kinase still bound, per cent of control (CDKL2 (human)): 92%
kinase still bound, per cent of control (MARK1 (human)): 4.3%
kinase still bound, per cent of control (FYN (human)): 6.7%
kinase still bound, per cent of control (PIM1 (human)): 66%
kinase still bound, per cent of control (CSNK1D (human)): 52%
kinase still bound, per cent of control (PRKD2 (human)): 36%
kinase still bound, per cent of control (CDK8 (human)): 100%
kinase still bound, per cent of control (MAPKAPK5 (human)): 85%
kinase still bound, per cent of control (CDK17 (human)): 80%
kinase still bound, per cent of control (CAMKK1 (human)): 39%
kinase still bound, per cent of control (EIF2AK2 (human)): 75%
kinase still bound, per cent of control (MAP2K6 (human)): 95%
kinase still bound, per cent of control (CDC42BPB (human)): 100%
kinase still bound, per cent of control (BMPR1A (human)): 0.65%
kinase still bound, per cent of control (MLTK (human)): 79%
kinase still bound, per cent of control (CAMK4 (human)): 100%
kinase still bound, per cent of control (ABL2 (human)): 1.4%
kinase still bound, per cent of control (PRKACA (human)): 100%
kinase still bound, per cent of control (CDK18 (human)): 100%
kinase still bound, per cent of control (MYO3B (human)): 100%

CCC(=O)N1CCN(c2ccc(-n3c(=O)ccc4cnc5ccc(-c6cnc7ccccc7c6)cc5c43)cc2C(F)(F)F)CC1
kinase still bound, per cent of control (SRC (human)): 95%
kinase still bound, per cent of control (CDK11B (human)): 97%
kinase still bound, per cent of control (MAP2K3 (human)): 80%
kinase still bound, per cent of control (PAK4 (human)): 100%
kinase still bound, per cent of control (STK11 (human)): 100%
kinase still bound, per cent of control [1]: 100%
kinase still bound, per cent of control (STK33 (human)): 90%
kinase still bound, per cent of control (EPHB2 (human)): 100%
kinase still bound, per cent of control (RET (human)): 44%
kinase still bound, per cent of control (NEK9 (human)): 100%
kinase still bound, per cent of control (BMPR2 (human)): 59%
kinase still bound, per cent of control (TEC (human)): 99%
kinase still bound, per cent of control (MYLK (human)): 87%
kinase still bound, per cent of control [3]: 55%
kinase still bound, per cent of control (PDGFRB (human)): 24%
kinase still bound, per cent of control (PIK3CD (human)): 51%
kinase still bound, per cent of control (RPS6KA1 KD1 (human)): 68%
kinase still bound, per cent of control (IRAK3 (human)): 27%
kinase still bound, per cent of control (MAP3K3 (human)): 75%
kinase still bound, per cent of control (CDKL2 (human)): 58%
kinase still bound, per cent of control (MARK1 (human)): 100%
kinase still bound, per cent of control (FYN (human)): 49%
kinase still bound, per cent of control (PIM1 (human)): 80%
kinase still bound, per cent of control (CSNK1D (human)): 4.3%
kinase still bound, per cent of control (PRKD2 (human)): 100%
kinase still bound, per cent of control (CDK8 (human)): 4.6%
kinase still bound, per cent of control (MAPKAPK5 (human)): 100%
kinase still bound, per cent of control (CDK17 (human)): 97%
kinase still bound, per cent of control (CAMKK1 (human)): 80%
kinase still bound, per cent of control (EIF2AK2 (human)): 88%
kinase still bound, per cent of control (MAP2K6 (human)): 100%
kinase still bound, per cent of control (CDC42BPB (human)): 3.4%
kinase still bound, per cent of control (BMPR1A (human)): 100%
kinase still bound, per cent of control (MLTK (human)): 22%
kinase still bound, per cent of control (CAMK4 (human)): 90%
kinase still bound, per cent of control (ABL2 (human)): 99%
kinase still bound, per cent of control (PRKACA (human)): 79%
kinase still bound, per cent of control (CDK18 (human)): 97%
kinase still bound, per cent of control (MYO3B (human)): 100%
